Experimental data published in ChEMBL document CHEMBL5576112, “Synthesis, in silico, in vitro evaluation of furanyl- and thiophenyl-3-phenyl-1H-indole-2-carbohydrazide derivatives as tubulin inhibitors and anticancer agents” (RSC Med Chem, 2024).
Activity calls are given as the source filed them. The calls are words filed in the database; no cut-off is given here.

Columns and labels:
SK-MEL-5 [1] = assay: Growth inhibition of human SK-MEL-5 cells at 10 uM measured after 48 hrs by sulforhodamine B assay; type: functional, cell-based
SK-MEL-5 [2] = assay: Growth inhibition of human SK-MEL-5 cells measured after 48 hrs by sulforhodamine B assay; type: functional; details: for CC50: read-out: LC50 (the source's name)
NCI-H522 [3] = assay: Growth inhibition of human NCI-H522 cells measured after 48 hrs by sulforhodamine B assay; type: functional; details: for CC50: read-out: LC50 (the source's name)
MDA-MB-435 [4] = assay: Growth inhibition of human MDA-MB-435 cells measured after 48 hrs by sulforhodamine B assay; type: functional; details: for CC50: read-out: LC50 (the source's name)
COLO 205 [5] = assay: Growth inhibition of human COLO 205 cells at 10 uM measured after 48 hrs by sulforhodamine B assay; type: functional, cell-based
Sus scrofa [6] = species: Sus scrofa; assay: Inhibition of porcine brain tubulin polymerization assessed as microtubule destabilization at 10 uM measured at 60 secs interval for 60 mins in presence of GTP by fluorescence assay
COLO 205 [7] = assay: Growth inhibition of human COLO 205 cells measured after 48 hrs by sulforhodamine B assay; type: functional; details: for CC50: read-out: LC50 (the source's name)
NCI-H522 [8] = assay: Growth inhibition of human NCI-H522 cells at 10 uM measured after 48 hrs by sulforhodamine B assay; type: functional, cell-based
MDA-MB-435 [9] = assay: Growth inhibition of human MDA-MB-435 cells at 10 uM measured after 48 hrs by sulforhodamine B assay; type: functional, cell-based
Sus scrofa [10] = species: Sus scrofa; assay: Inhibition of porcine brain tubulin polymerization assessed as microtubule destabilization by measuring relative fluorescence unit at 10 uM measured at 60 secs interval for 60 mins in presence of GTP by fluorescence assay
OVCAR-8 [11] = assay: Growth inhibition of human OVCAR-8 cells measured after 48 hrs by sulforhodamine B assay; type: functional; details: for CC50: read-out: LC50 (the source's name)
UACC-62 [12] = assay: Growth inhibition of human UACC-62 cells at 10 uM measured after 48 hrs by sulforhodamine B assay; type: functional, cell-based
OVCAR-8 [13] = assay: Growth inhibition of human OVCAR-8 cells at 10 uM measured after 48 hrs by sulforhodamine B assay; type: functional, cell-based
K562 [14] = assay: Growth inhibition of human K562 cells at 10 uM measured after 48 hrs by sulforhodamine B assay; type: functional, cell-based
UACC-62 [15] = assay: Growth inhibition of human UACC-62 cells measured after 48 hrs by sulforhodamine B assay; type: functional; details: for CC50: read-out: LC50 (the source's name)
K562 [16] = assay: Growth inhibition of human K562 cells measured after 48 hrs by sulforhodamine B assay; type: functional; details: for CC50: read-out: LC50 (the source's name)
MCF7 [17] = assay: Growth inhibition of human MCF7 cells at 10 uM measured after 48 hrs by sulforhodamine B assay; type: functional, cell-based
MCF7 [18] = assay: Growth inhibition of human MCF7 cells measured after 48 hrs by sulforhodamine B assay; type: functional

SMILES	growth inhibition (GI) (SK-MEL-5 [1])	GI50 (SK-MEL-5 [2]) [nM]	CC50 (SK-MEL-5 [2]) [nM]	GI50 (NCI-H522 [3]) [nM]	CC50 (NCI-H522 [3]) [nM]	GI50 (MDA-MB-435 [4]) [nM]	CC50 (MDA-MB-435 [4]) [nM]	growth inhibition (GI) (COLO 205 [5])	GI50 (COLO 205 [7]) [nM]	CC50 (COLO 205 [7]) [nM]	growth inhibition (GI) (NCI-H522 [8])	growth inhibition (GI) (MDA-MB-435 [9])	GI50 (OVCAR-8 [11]) [nM]	CC50 (OVCAR-8 [11]) [nM]	growth inhibition (GI) (UACC-62 [12])	growth inhibition (GI) (OVCAR-8 [13])	growth inhibition (GI) (K562 [14])	GI50 (UACC-62 [15]) [nM]	CC50 (UACC-62 [15]) [nM]	GI50 (K562 [16]) [nM]	further results
N#Cc1ccc(/C=N/NC(=O)c2[nH]c3ccc(Br)cc3c2-c2ccccc2)s1	Active	124	4610	23	> 100000	36	> 100000	Active	195	> 100000	Active	Active	–	–	–	–	–	–	–	–	inhibition (Sus scrofa [6]): inactive
O=C(N/N=C/c1ccc(-c2ccc(O)cc2)s1)c1[nH]c2ccc(Br)cc2c1-c1ccccc1	Active	–	–	–	–	–	–	Active	–	–	Active	Active	–	–	–	–	–	–	–	–	growth inhibition (GI) (SK-MEL-5 [2]): Active; growth inhibition (GI) (NCI-H522 [3]): Active; growth inhibition (GI) (MDA-MB-435 [4]): Active; growth inhibition (GI) (COLO 205 [7]): Active
O=C(N/N=C/c1ccsc1)c1[nH]c2ccc(Br)cc2c1-c1ccccc1	Active	> 100	> 10000	> 100	> 10000	78.9	> 10000	Active	> 100	> 10000	Active	Active	–	–	–	–	–	–	–	–	–
O=C(N/N=C/c1cccs1)c1[nH]c2ccc(Br)cc2c1-c1ccccc1	Active	–	> 10000	–	> 10000	–	> 10000	Active	–	> 10000	Active	Active	–	–	–	–	–	–	–	–	growth inhibition (GI) (SK-MEL-5 [2]): Active; growth inhibition (GI) (NCI-H522 [3]): Active; growth inhibition (GI) (MDA-MB-435 [4]): Active; growth inhibition (GI) (COLO 205 [7]): Active
O=C(N/N=C/c1ccc([N+](=O)[O-])o1)c1[nH]c2ccc(Br)cc2c1-c1ccccc1	Active	213	2620	37.4	5390	80.8	734	Active	233	1790	Active	Active	184	4190	Active	Active	Active	73.1	5290	54	RFU (Sus scrofa [10]): 45 a.u.; CC50 (K562 [16]): > 100000 nM; growth inhibition (GI) (MCF7 [17]): Active; GI50 (MCF7 [18]): 44.3 nM; LC50 (MCF7 [18]): > 100000 nM
N#Cc1ccc(/C=N/NC(=O)c2[nH]c3ccc(Br)cc3c2-c2ccccc2)o1	Active	231	> 100000	82.6	> 100000	186	> 100000	Active	198	692	Active	Active	209	> 100000	Active	Active	Active	462	> 100000	69	inhibition (Sus scrofa [6]): inactive; CC50 (K562 [16]): > 100000 nM; growth inhibition (GI) (MCF7 [17]): Active; GI50 (MCF7 [18]): 324 nM; LC50 (MCF7 [18]): > 100000 nM
O=C(N/N=C/c1ccc([N+](=O)[O-])s1)c1[nH]c2ccc(Br)cc2c1-c1ccccc1	Active	214	1870	47.3	> 100000	181	861	Active	203	795	Active	Active	–	–	–	–	–	–	–	–	inhibition (Sus scrofa [6]): inactive
O=C(O)c1ccc(-c2ccc(/C=N/NC(=O)c3[nH]c4ccc(Br)cc4c3-c3ccccc3)s2)cc1	Active	–	–	–	–	–	–	Active	–	–	Active	Active	–	–	–	–	–	–	–	–	growth inhibition (GI) (SK-MEL-5 [2]): Active; growth inhibition (GI) (NCI-H522 [3]): Active; growth inhibition (GI) (MDA-MB-435 [4]): Active; growth inhibition (GI) (COLO 205 [7]): Active
O=C(N/N=C/c1ccc(-c2cccc([N+](=O)[O-])c2)o1)c1[nH]c2ccc(Br)cc2c1-c1ccccc1	–	–	–	–	9130	–	–	–	–	–	Active	–	–	–	–	–	–	–	–	–	–
COc1ccc(/C=N/NC(=O)c2[nH]c3ccc(Br)cc3c2-c2ccccc2)o1	Active	139	> 100000	18.4	> 100000	77.5	747	Active	187	659	Active	Active	84.5	> 100000	Active	Active	Active	53.5	> 100000	47	CC50 (K562 [16]): > 100000 nM; growth inhibition (GI) (MCF7 [17]): Active; GI50 (MCF7 [18]): 34.9 nM; LC50 (MCF7 [18]): > 100000 nM
O=C(N/N=C/c1ccc(B(O)O)s1)c1[nH]c2ccc(Br)cc2c1-c1ccccc1	Active	> 100	–	> 100	–	> 100	–	Active	> 100	4980	Active	Active	–	–	–	–	–	–	–	–	–
O=C(N/N=C/c1ccco1)c1[nH]c2ccc(Br)cc2c1-c1ccccc1	Active	88.7	> 100000	23.9	> 100000	34	> 100000	Active	113	> 100000	Active	Active	121	> 100000	Active	Active	Active	39.4	> 100000	40.7	RFU (Sus scrofa [10]): 50 a.u.; CC50 (K562 [16]): > 100000 nM; growth inhibition (GI) (MCF7 [17]): Active; GI50 (MCF7 [18]): 41.4 nM; LC50 (MCF7 [18]): > 100000 nM
